US12569565B2, “Compositions and methods for the treatment of viral infections” (Cidara Therapeutics, Inc., priority 2018, dated 2026)
Values joined by “and” are separate entries in the source; they are usually repeats but may differ in a detail not shown here. Equal entries are not always repeated. Where two headings read alike, the source gives them in different places.

Columns and labels:
[1] = 1 mg/mL in 1xPBS, over a week at 60° C.; HPLC 240 nm
[2] = test system: A/Puerto Rico/08/1934 (PR8), H1N1; format: in vivo, female BALB/c mice; conditions: for % Survival: 10 days
[3] = test system: INFV A H1N1 A/Texas/36/91; assay: Lethal mouse influenza model, Study #4 (treatment window); format: in vivo, female BALB/c mice
Description: The experiment comprised 13 groups of 5 mice. At day 0, all mice were challenged with 1×LD90 H1N1 A/Texas/36/91. […] Vehicle (PBS) and Fc only were included as negative controls. […] All mice were monitored for survival (FIGS. 32A-32F) for 15 days after challenge.

[4] = test system: INFV A H3N2 A/Hong Kong/1/68; assay: Lethal mouse influenza model, Study #2; format: in vivo, female BALB/c mice; conditions: 20 mg/kg PO B.I.D for 5 days from 8 h post infection
[5] = test system: INFV A H1N1 A/Texas/36/91; assay: Lethal mouse influenza model, Study #1; format: in vivo, female BALB/c mice; conditions: 20 mg/kg B.I.D PO 5 days from 8 h post infection
[6] = test system: INFV A H1N1 A/Texas/36/91; assay: Lethal mouse influenza model, Study #3 (dosing 28 days before challenge); format: in vivo, female BALB/c mice; conditions: 20 mg/kg PO twice daily 5 days from 8 h post infection
Description: The experiment comprised 7 groups of 5 mice. At day 0, all mice were challenged with 1×LD90 H1N1 A/Texas/36/91. Groups 1-6 received treatment IV, 28 days before challenge (Table 12). Vehicle (PBS) was included as an additional negative control. […] All mice were monitored for survival (FIGS. 31A-31F) for 15 days after challenge.

[7] = test system: IAV H1N1 A/Texas/36/91; set-up: species or system female BALB/c mice; conditions: mouse, in vivo
[8] = test system: Influenza B/Brisbane/60/2008; set-up: species or system female BALB/c mice; conditions: mouse, in vivo
[9] = test system: H1N1 A/Netherlands/602/2009; format: cell-based, influenza A virus
[10] = test system: influenza A/WSN/1933 (H1N1); assay: CPE assay at different multiplicities of infection (Example 94); format: cell-based, influenza A virus; conditions: read-out: EC50 H1N1 A/WSN/1933 (CPE in MDCK cells)
[11] = test system: Influenza A/Puerto Rico/8/1934 (H1N1); set-up: species or system female BALB/c mice; conditions: mouse, in vivo
[12] = test system: INFV A (A/CA/09 H1N1); format: cell-based, influenza A virus
[13] = test system: INFV CA/09 virus; format: cell-based, influenza virus
[14] = test system: MDCK cells; conditions: four days post treatment, dilutions starting at 10 μM
[15] = test system: Influenza A virus (INFV CA/09); format: cell-based
[16] = test system: INFV B (B/Brisbane); format: cell-based, influenza B virus

With `C#CCOCCOCCOCCOCCNC(=O)O[C@@H]([C@@H]1OC(C(=O)O)=C[C@H](NC(=N)N)[C@H]1NC(C)=O)[C@H](O)CO` [Int-4] the degredation [1] was 15%.

With `CC(=O)N[C@H]1[C@H]([C@H](OCC(=O)NCCCCNCCCCNC(=O)CO[C@@H]([C@@H]2OC(C(=O)O)=C[C@H](NC(=N)N)[C@H]2NC(C)=O)[C@H](O)CO)[C@H](O)CO)OC(C(=O)O)=C[C@@H]1NC(=N)N` [Int-11] the “% Survival” value [2] was 0%, the “% Survival” value ([2]; 15 mg/kg) was 100% and the “delay in death relative to vehicle and hIgG1 Fc only controls” value ([2]; mouse, in vivo) was no more than 2 days. The “greater cumulative dose required for efficacy equivalent to conjugate 6 (mass basis)” value ([2]; mouse, in vivo) was 500 ×.

For `C#CCOCCOCCOCCOCCN(C)C(=O)O[C@@H]([C@H]1OC(C(=O)O)=C[C@@H](NC(=N)N)[C@@H]1NC(C)=O)[C@H](O)CO` [Int-80], the degredation [1] was “less than 1%”.

With `CCOC(=O)C1=C[C@@H](OC(CC)CC)[C@H](NC(C)=O)[C@@H](N)C1` [Oseltamivir phosphate] the survival ([3]; 20 mg/kg PO bid × 5 days initiated at 48 hrs post-infection) was 0%, the survival ([3]; 20 mg/kg PO bid × 5 days initiated at 72 hrs post-infection) was 20% and the “Mean Survival” value [4] was 15 days. The “% Survival” value [5] was 100%, the “Mean Survival” value [5] was 15 and the survival [6] was “survived”.

For `CCOC(=O)C1=C[C@@H](OC(CC)CC)[C@H](NC(C)=O)[C@@H](N)C1` [Oseltamivir, oseltamivir], the “% Survival (Day 14)” value [7] was 100%, the Body weights [8] was 89 gm and 85 gm and 79 gm and 100 gm and 98 gm and 97 gm and the survival [8] was 40%. The “EC100 (CPE in MDCK cells)” value [9] was roughly 1000 nM, the “% Survival” value [4] was 80% and the EC50 ([10]; MOI 0.001) was 525 nM. The EC50 ([10]; MOI 0.01) was 1900 nM, the EC50 ([10]; MOI 0.1) was greater than 10000 nM and the EC50 ([10]; MOI 1) was greater than 10000 nM. The “% Survival” value [2] was 20% and the “Log reduction (PFU/mL)” value [11] was 0.24 and 0.52.

Compound `CC(=O)N[C@H]1[C@H]([C@H](O)[C@H](O)CO)OC(C(=O)O)=C[C@@H]1N=C(N)N` [Zanamivir, zanamivir] has an EC50 [12] of 265 nM, an EC50 ([10]; MOI 0.001) of 137 nM and an EC50 ([10]; MOI 0.01) of 938 nM. It also gave an EC50 ([10]; MOI 0.1) greater than 10000 nM, an EC50 ([10]; MOI 1) greater than 10000 nM and an EC50 [13] of 469 nM. The CC50 [14] was greater than 10000 nM, the EC50 [15] was 496 nM and the EC50 [16] was 383 nM.

For `O=C1c2c(O)c(=O)ccn2N([C@@H]2c3ccccc3SCc3c2ccc(F)c3F)[C@@H]2COCCN12` [baloxavir], the EC50 ([10]; Influenza A virus, MDCK, MOI 0.001) was 5 nM, the EC50 ([10]; Influenza A virus, MDCK, MOI 0.01) was 4 nM and the EC50 ([10]; Influenza A virus, MDCK, MOI 0.1) was 79 nM. It also gave an EC50 ([10]; Influenza A virus, MDCK, MOI 1) greater than 100 nM.
